Entries after “also recorded” stand apart in the source; their conditions may differ. Like-named read-outs stand apart in the source and are kept apart here.
Key:
[1] = tested on: KcsA–Kv1.3 (Kv1.3 binding site); test: Competitive binding: displacement of A-AgTx2 from KcsA–Kv1.3 on E. coli spheroplasts; conditions: 1 h at 37 °C, pH 8.0; for displacement of A-AgTx2 from complexes with KcsA–Kv1.3 by peptide blockers (in words): tested AgTx2 0.4–50 nM, KTx1 0.04–2.5 nM, ChTx 10 nM, averaged over 3 independent experiments; for Kd: competition with A-AgTx2 10 nM, Kap = IC50/(1 + [L]/[Kd]), mean ± SEM, three independent measurements, read-out: apparent dissociation constant (Kap)
Method: (§1) E. coli spheroplasts expressing KcsA or chimeric KcsA–Kv1.x (x = 1, 3, 6) channels were prepared according to the previously developed protocol. Briefly, E. coli BL21 (DE3) cells (Novagen, Merck, Darmstadt, Germany), transformed either with the pET28a-KcsA, the pET28a-KcsA–Kv1.1, or the pET28a-KcsA–Kv1.3 plasmid, were cultivated in a minimal M9 medium at 37 °C up to OD560 = 0.8 optical units per cm (o.u./cm), induced with 50 μM isopropyl β-D-1-thiogalactopyranoside, and further grown at 37 °C for 20 h. The cells transformed with pET28a-KcsA–Kv1.6 were grown at 25 °C for 28 h after induction. To prepare the spheroplasts, cells were harvested by centrifugation (5000× g, 10 min, 4 °C), incubated in buffer A (10 mM Tris–HCl, pH 8.0, 0.5 M sucrose) containing lysozyme (20 μg/mL) for 7 min on ice, then diluted twofold with buffer B (10 mM Tris–HCl, pH 8.0, 0.3 mM ethylenediamine tetraacetic acid) and further incubated for 20 min. Finally, the spheroplasts (OD560 ≈ 0.5 o.u./cm) were stabilized by the addition of MgCl2 (10 mM) and stored at 4 °C.
(§2) All the experiments were performed in a buffer containing 50 mM Tris-HCl (pH 8.0), 4 mM KCl, 50 mM NaCl, 10 mM MgCl2, 0.3 mM EDTA, 250 mM sucrose, and 0.1% bovine serum albumin. In the binding experiments, the spheroplasts (1000 cells/μL) were incubated with different concentrations of A-AgTx2 (0.16–20 or 100 nM) or AgTx2-GFP (4 or 50 nM) for 1 h at 37 °C. In the competitive binding experiments, the spheroplasts were incubated with A-AgTx2 (10 nM) and with one of the following compounds for 1 h at 37 °C: AgTx2 (0.4–50 nM), KTx1 (0.04–2.5 nM), ChTx (10 nM), ScyTx (5 µM), tetraethylammonium (TEA, 10 mM).
(§3) After incubation with ligands, the spheroplasts were placed in a 12-well flexiPERM silicon chamber (Perbio, Aalst, Belgium) attached to a thin (0.15 mm) cover glass and were centrifuged at 200× g for 5 min to immobilize the spheroplasts to a cover glass. The microscopy studies were carried out with a laser scanning confocal microscope LSM 710 (Zeiss, Oberkochen, Germany) using the α Plan-Apochromat 100×/1.46 oil immersion objective. Fluorescence of A-AgTx2 and AgTx2-GFP was excited at the 488 nm wavelength and recorded in the 495–590 nm range, at a 0.25 μm lateral and ca. 1.5 μm axial resolution. Image J software (National Institutes of Health, Bethesda, MD, USA) was used to treat the images and define the fluorescence intensity of the ligand bound to each measured spheroplast and the average fluorescence intensity Ia of the bound fluorescent ligand (mean ± SEM, n = 130–230 cells per point).
The apparent dissociation constant (Kap) of non-labeled ligands (AgTx2, KTx1) was calculated using the data of competition binding experiments according to the procedure described elsewhere with the following equation: Kap = IC50/(1 + [L]/[Kd])(2) where [L] is a concentration of A-AgTx2 (10 nM), IC50 is the concentration of a non-labeled ligand that displaces 50% of A-AgTx2 from the complex with KcsA–Kv1.3. Kap was introduced instead of Kd to emphasize an indirect method (the competitive binding experiment) for its determination.
(§4) The Kd and Kap values from three independent measurements were averaged and presented as mean ± SEM.

[2] = tested on: KcsA–Kv1.3 (Kv1.3 binding site); test: Direct binding of fluorescent ligand to hybrid KcsA–Kv1.3 on E. coli spheroplasts, confocal microscopy
Method: as §1, with “°C. To obtain spheroplasts from non-transformed cells, E. coli BL21 (DE3) cells were subjected to similar growth, induction, and treatment procedures.” for “°C.”
as §2, §3
The dissociation constants (Kd) of complexes between A-AgTx2 and KcsA–Kv1.3 were defined by fitting the experimental dependencies of Ia onto the concentration L of A-AgTx2 with the following equation:Ia ([L]) = Ias [L]/(Kd + [L])(1) where Ias is the Ia value when the A-AgTx2 binding is saturated.
as §4

[3] = tested on: KcsA–Kv1.1 (Kv1.1 binding site); test: Direct binding of fluorescent ligand to hybrid KcsA–Kv1.1 on E. coli spheroplasts, confocal microscopy; conditions: A-AgTx2 100 nM, 1 h at 37 °C, pH 8.0
Method: (§5) E. coli spheroplasts expressing KcsA or chimeric KcsA–Kv1.x (x = 1, 3, 6) channels were prepared according to the previously developed protocol. Briefly, E. coli BL21 (DE3) cells (Novagen, Merck, Darmstadt, Germany), transformed either with the pET28a-KcsA, the pET28a-KcsA–Kv1.1, or the pET28a-KcsA–Kv1.3 plasmid, were cultivated in a minimal M9 medium at 37 °C up to OD560 = 0.8 optical units per cm (o.u./cm), induced with 50 μM isopropyl β-D-1-thiogalactopyranoside, and further grown at 37 °C for 20 h. The cells transformed with pET28a-KcsA–Kv1.6 were grown at 25 °C for 28 h after induction. […]
as §3, with “The microscopy studies were carried out with a laser scanning confocal microscope LSM 710 (Zeiss, Oberkochen, Germany) using the α Plan-Apochromat 100×/1.46 oil immersion objective.” left out

[4] = tested on: KcsA; test: Direct binding of fluorescent ligand to control spheroplasts expressing KcsA; conditions: A-AgTx2 100 nM
Method: as §5
as §3, with “The microscopy studies were carried out with a laser scanning confocal microscope LSM 710 (Zeiss, Oberkochen, Germany) using the α Plan-Apochromat 100×/1.46 oil immersion objective.” left out

[5] = tested on: KcsA–Kv1.6 (Kv1.6 binding site); test: Direct binding of fluorescent ligand to hybrid KcsA–Kv1.6 on E. coli spheroplasts, confocal microscopy; conditions: A-AgTx2 100 nM, 1 h at 37 °C, pH 8.0
Method: as §5
as §3, with “The microscopy studies were carried out with a laser scanning confocal microscope LSM 710 (Zeiss, Oberkochen, Germany) using the α Plan-Apochromat 100×/1.46 oil immersion objective.” left out

[6] = tested on: spheroplasts prepared from non-transformed cells; test: Direct binding of fluorescent ligand to control spheroplasts from non-transformed cells (plasma membrane); set-up: species or system E. coli BL21 (DE3); conditions: A-AgTx2 100 nM
Method: as §5
as §3, with “The microscopy studies were carried out with a laser scanning confocal microscope LSM 710 (Zeiss, Oberkochen, Germany) using the α Plan-Apochromat 100×/1.46 oil immersion objective.” left out

[7] = tested on: Kv1.6 channel; conditions: cited from earlier work
Excerpt: (§6) Differences between two labeled derivatives include the position of a label (carboxytetramehylrhodamine was located at the C-terminus of AgTx2 [11]), the number of charges, and the total charge at the labels. Atto488 bears two negatively and one positively charged groups (Figure 1C), while carboxytetramehylrhodamine bears one negative charge and one positive charge. It can be s ... || (+ 1 further places)

[8] = tested on: Kv1.1 channel; conditions: cited from earlier work
Excerpt: as §6

[9] = tested on: Kv1.3 channel; conditions: cited from earlier work
Excerpt: High-affinity and genetically ... || Interactions of A-AgTx2 with the Kv1.3 binding site were further characterized using known small organic molecule (TEA) and peptide blockers (ChTx, KTx1, AgTx2) of the Kv1.3 channel.

[10] = tested on: Shaker K^+ channel; conditions: ref [1]; cited from earlier work
Excerpt: The toxin contains a triple-stranded antiparallel β-sheet with two outer strands—S1 (Val2-Cys8) and S2 (Arg24-Met29)—and the central strand S3 (Lys32—Thr ...

[11] = molecular target: Kv1.3 channel; conditions: read-out: Kd, electrophysiological studies, cited from earlier work
[12] = molecular target: KcsA–Kv1.3; conditions: estimated previously; ref [15]; read-out: apparent dissociation constant, KcsA–Kv1.3-bearing spheroplasts and GFP-tagged AgTx2 ligand; cited from earlier work
Method: Since the bioengineering system based on KcsA–Kv1.3-bearing spheroplasts is suitable for the quantitative analysis of the affinity of unlabeled pore blockers by measuring the competitive binding of the fluorescent ligand and the compound under study, we tested A-AgTx2 in such an analysis (Figure 4C). […] The concentrations of AgTx2 and KTx1 displacing 50% of A-AgTx2, which were determined from the measured dependences, made it possible to calculate the apparent dis ...

[13] = tested on: KCa2.3 channel; conditions: ref [18]; cited from earlier work
[14] = tested on: KCa2.2 channel; conditions: ref [18]; cited from earlier work
[15] = tested on: KCa2.1 channel; conditions: ref [18]; cited from earlier work

Compound: CC[N+](CC)(CC)CC [TEA, tetraethylammonium]
- displacement of A-AgTx2 from complexes with KcsA–Kv1.3 by TEA (in words) ([1]; A-AgTx2 10 nM, TEA 10 mM): accomplished this at millimolar concentrations

Compound: Atto488-agitoxin 2 [A-AgTx2]
- affinity for the Kv1.3 binding site compared to the unlabeled AgTx2 (in words) [2]: decreased as compared to the unlabeled AgTx2
- binding of A-AgTx2 to spheroplasts expressing KcsA–Kv1.3 (in words) ([2]; A-AgTx2 20 nM, 1 h at 37 °C, pH 8.0): effectively binds to spheroplasts expressing KcsA–Kv1.3
- Kd ([2]; A-AgTx2 0.16–20 nM, 1 h at 37 °C, pH 8.0, 4 mM KCl, 50 mM NaCl, 0.1% BSA, mean ± SEM, n = 3, read-out: dissociation constant (Kd) of complexes with KcsA–Kv1.3): 3.9 ± 0.2 nM
- intensity of fluorescence detected from KcsA–Kv1.3-bearing spheroplasts relative to control spheroplasts (higher than) ([2]; A-AgTx2, control: spheroplasts expressing KcsA or not expressing heterologous channels, difference preserved with controls at fivefold higher A-AgTx2 concentration): fifty
- selectivity toward Kv1.3 as compared to the Kv1.1 and Kv1.6 binding sites (in words) ([2]; in contrast to non-modified AgTx2): considerably increased selectivity toward Kv1.3
- binding of A-AgTx2 to KcsA–Kv1.1 / Kv1.1 binding site (in words) [3]: lose affinity for the Kv1.1 and Kv1.6 binding sites; also recorded: does not stain spheroplasts presenting KcsA–Kv1.1 or KcsA–Kv1.6; also recorded: inability of A-AgTx2 to interact with the Kv1.1 and Kv1.6 binding sites
- non-specific ligand binding to the KcsA channel scaffold (in words) [4]: very low
- binding of A-AgTx2 to KcsA–Kv1.6 / Kv1.6 binding site (in words) [5]: lose affinity for the Kv1.1 and Kv1.6 binding sites; also recorded: does not stain spheroplasts presenting KcsA–Kv1.1 or KcsA–Kv1.6; also recorded: inability of A-AgTx2 to interact with the Kv1.1 and Kv1.6 binding sites
- non-specific ligand binding to plasma membrane (in words) [6]: very low

Compound: R-AgTx2: AgTx2 labeled with carboxytetramethylrhodamine at Lys38
- affinity for Kv1.6 binding site (in words) ([7]; ref [11],[12],[13]): nanomolar affinity
- affinity for Kv1.1 binding site (in words) ([8]; ref [11],[12],[13]): nanomolar affinity
- affinity for Kv1.3 binding site (in words) ([9]; ref [11],[12],[13]): nanomolar affinity

Compound: agitoxin 2 [AgTx2]
- inhibition of Shaker K^+ channel (in words) [10]: high-affinity inhibitor
- Kd ([11]; ref [19]): 2 nM
- displacement of A-AgTx2 from complexes with KcsA–Kv1.3 by peptide blockers (in words) ([1]; A-AgTx2 10 nM): displaced A-AgTx2 from the complexes with KcsA–Kv1.3 at nanomolar concentrations
- Kd [1]: 0.54 ± 0.11 nM
- Kd [12]: 0.23 nM
- inhibition of Kv1.6 (in words) ([7]; mammalian channel, ref [1]): high-affinity inhibitor
- inhibition of Kv1.1 (in words) ([8]; mammalian channel, ref [1]): high-affinity inhibitor
- inhibition of Kv1.3 (in words) ([9]; mammalian channel, ref [1]): high-affinity inhibitor

Compound: charybdotoxin [ChTx]
- displacement of A-AgTx2 from complexes with KcsA–Kv1.3 by peptide blockers (in words) ([1]; A-AgTx2 10 nM): displaced A-AgTx2 from the complexes with KcsA–Kv1.3 at nanomolar concentrations

Compound: kaliotoxin-1 [KTx1]
- Kd ([11]; ref [20]): 0.1 nM
- displacement of A-AgTx2 from complexes with KcsA–Kv1.3 by peptide blockers (in words) ([1]; A-AgTx2 10 nM): displaced A-AgTx2 from the complexes with KcsA–Kv1.3 at nanomolar concentrations
- Kd [1]: 0.06 ± 0.02 nM
- Kd [12]: 0.1 nM

Compound: scyllatoxin (AFCNLRMCQLSCRSLGLLGKCIGDKCECVKH; UniProt P16341 1-31, looked up) [ScyTx]
- block of KCa2.3 (in words) [13]: blocks the KCa2.1, KCa2.2, and KCa2.3 channels
- displacement of A-AgTx2 from complexes with KcsA–Kv1.3 by control peptide (in words) ([1]; A-AgTx2 10 nM, ScyTx 5 µM): did not disturb the complexes of A-AgTx2 with KcsA–Kv1.3
- block of KCa2.2 (in words) [14]: blocks the KCa2.1, KCa2.2, and KCa2.3 channels
- interaction with Kv1.3 (in words) ([9]; stated as known, ref [18]): does not interact with Kv1.3
- block of KCa2.1 (in words) [15]: blocks the KCa2.1, KCa2.2, and KCa2.3 channels
